This note sets out measurements from paper PMC4957748, “Development of Novel Erythromycin Derivatives with Inhibitory Activity against Proliferation of Tumor Cells” (PLoS ONE, 2016).

Assay [1] concerns normal mouse fibroblast cells (L929). The assay is described as follows: MTT assay, toxicity against normal fibroblasts L929. The format is cell-based. As to conditions: L929, 24 h of drug exposure. As for the experimental part: (§1) The antiproliferative activity of the synthetic compounds was measured by 3-(4, 5- dimethylthiazol-2-yl)-2, 5-diphenyltetrazolium bromide (MTT) assay. Cells were seeded in 96-well plates (Corning, NY, USA) at a density of 8×10^3 per well. After 24 h of incubation, cells were treated with different concentrations (0.1, 0.3, 1, 3 and 10 μg/ml) of the EM-A dimers for the indicated time periods. Afterwards, MTT (Sigma, St. Louis, MO) solution [5.0 mg/ml in phosphate-buffered saline (PBS)] was added (20 μl/well) and incubated for another 4 h at 37°C. The purple formazan crystals were then dissolved in 100 μl dimethyl sulfoxide (DMSO). After 5 min, the plates were read on a plate microreader (TECANSPECTRA, Wetzlar, Germanay) at 490 nm. The IC50 values were obtained using the software of Dose–Effect Analysis with Microcomputers and were defined as concentration of drug causing 50% inhibition in absorbance compared with control cells. Assays were performed in triplicate from three independent experiments.

The test system of assay [2] is fibrosarcoma (HT-1080) cells. The assay is described as follows: MTT antiproliferative assay, HT-1080. It is filed as cell-based, human. As to conditions: Homo sapiens, HT-1080, 24 h of drug exposure, mean±SD of 3 experiments. The protocol: (§2) In vitro antiproliferative activity against three human tumor cell lines, including gastric adenocarcinoma (SGC-7901), oral carcinoma (KB) and fibrosarcoma (HT-1080), was evaluated using the MTT assay with cis-platinum (Cpt) as the positive control.
as §1
(In general: Formazan colour is commonly taken as a measure of viable cells.)

Assay [3] has as its system gastric adenocarcinoma (SGC-7901) cells. Briefly: MTT antiproliferative assay, SGC-7901. As to conditions: Homo sapiens, SGC-7901, 24 h of drug exposure, mean±SD of 3 experiments. It is filed as cell-based, human. The protocol:
as §2, §1

The test system of assay [4] is oral carcinoma (KB) cells. The assay is described as follows: MTT antiproliferative assay, KB. The format is cell-based, human. As to conditions: Homo sapiens, KB, 24 h of drug exposure, mean±SD of 3 experiments. The protocol: as §2, §1
The subject of assay [5] is Hela cells. Briefly: Mitochondrial potential assay (Rhodamine 123), HeLa. To be noted: 24 h. It is filed as cell-based, human. The protocol:
Mitochondria play a key role in the process of apoptosis. After treatment with 1b for 24h and stained with Rhodamine 123, the mitochondrial membrane potential (Δψm) changes in HeLa and MCF-7 cells were observed by flow cytometer.
Cells were seeded in 6-well plates at a density of 0.8×10^5 (MCF-7) or 1.0×10^5 (HeLa) per well. After 24 h of incubation, cells were treated with 0, 0.5, 1.5 or 2.5 μM 1b for another 24h. Subsequently, cells were washed with PBS twice, incubated with 1 μg/mL Rhodamine 123 in 1 mL PBS at 37°C for 30 min, and analyzed by FACScan flow cytometer.

Assay [6] concerns Hela cells. Briefly: Flow cytometry cell cycle analysis (PI), Hela. As to conditions: 1b 24 h. The format is cell-based, human. As for the experimental part:
(§3) To understand the mechanism driving the antiproliferative activity of the prepared compounds, we analyzed using flow cytometry the cell cycles of Hela and MCF-7 treated for 24h with the selected active compound 1b at 0.5, 1.0 and 2.0μM concentrations (Fig 2B). […] The percentage of apoptotic cells depended on the concentration of 1b.
(§4) Cells were dispensed in 25 ml culture bottle at a density of 5 ×10^5 per bottle. After 24 h incubation, they were treated with compound 1b at given concentrations for 24h. The cells were harvested by 0.05% trypsin (Sigma, St. Louis, MO), then collected by centrifugation, washed with PBS, and fixed with 10 ml ice-cold 70% ethanol at 4°C overnight. After washed with PBS, the cells were suspended in 1ml propidium iodide (PI; 50 mg/L; Sigma, St. Louis, MO) solution supplemented with 1 g/L RNase A (Sigma, St. Louis, MO). Finally, the samples were analyzed by FACScan flow cytometer (Becton Dickinson, Franklin, NJ, USA).
(A flow cytometer gives signals particle by particle.)

For assay [7], the system named is MCF-7 cells. The assay is described as follows: Annexin V-FITC/PI apoptosis analysis, MCF-7. The format is cell-based, human. As to conditions: MCF-7, 2.5 μM, 24 h (control 3.28%). As for the experimental part:
(§5) The majority of cells (Hela, 88.44% and MCF-7 89.30%) in the control samples were viable and non-apoptotic. […] In addition, an increase in the Annexin V+PI+ population was also observed which indicates late apoptotic or dead cells.
(§6) Cell apoptosis was determined using AnnexinV-FITC/PI Assay Kit according to the manufacturers’ protocols. Briefly, cells were seeded in 6-well plates at a density of 1.2×10^5 (MCF-7) or 1.5×10^5 (HeLa) per well and incubated for 24 h. Then, cells were treated with 0, 0.5, 1.5 or 2.5 μM 1b for 24h. After washed with PBS twice, cells were re-suspended in 100 μL binding buffer containing 5 μL AnnexinV-FITC and 5 μL PI. Following 10 min of incubation, cells were detected by FACScan flow cytometer.

Assay [8] deals with Hela cells. Briefly: Annexin V-FITC/PI apoptosis analysis, Hela. It is filed as cell-based, human. As to conditions: 2.5 μM, 24 h (control 4.68%). The protocol:
as §5, §6

In assay [9] the test system is Bax, Bcl-2, cyt c, Caspase-3 in HeLa cells. The assay is described as follows: Western blot analysis of apoptotic proteins, HeLa. It is filed as cell-based, human. To be noted: 24 h. As for the experimental part:
(§7) Bax and Bcl-2 proteins are two key apoptosis regulators of Bcl-2 family that govern mitochondrial outer membrane permeabilization (MOMP). To investigate the effects of 1b on Bax and Bcl-2 expressions and its association with cell apoptosis and proliferation, HeLa and MCF-7 cells were treated with different concentration of 1b for 24h before western blot analysis (Fig 6). […] Treatment with 1b led to Δψm depolarization, MOMP enhancing and pro-apoptotic proteins release.
(§8) Cytochrome complex (cyt c) and Caspase-3 play important roles in the process of cell apoptosis. In our case, the effects of 1b on the expression of cyt c and Caspase-3 were examined by treatment of HeLa and MCF-7 cells with different concentration of 1b. […] Treatment with 1b promoted the translocation of cyt c from the mitochondria to cytoplasm. In addition, the amount of 17 kDa cleaved Caspase-3 increased, accompanying with the reducing of zymogen.
(§9) Cells were seeded in 75 mL culture flask at a density of 8 ×10^5 (MCF-7) or 1.2×10^6 (HeLa) and incubated for 24 h. Thereafter, cells were treated with 0, 0.5, 1.5 or 2.5 μM 1b for 24h and harvested by trypsin into the EP tubes.
(§10) For total protein extraction, the cell pellets were lysed in RIPA buffer (Beyotime) supplemented with PMSF on ice for 30 min. After centrifuging at 12000 g for 10 min at 4°C, the cell suspension was collected as the whole cell protein. Cytoplasmic proteins and mitochondrial proteins were extracted from cells using Cell Mitochondria Isolation Kit according to the instructions of manufacturer. The protein concentrations were quantified with BCA Protein Assay Kit (Beyotime) and a plate reader according to the manufacturer’s protocols.
(§11) For western blot analysis, equal protein lysates were separated by electrophoresis on 12% SDS-PAGE gels, and transferred onto PVDF membranes. After blocking with 5% non-fat milk in PBS for 2.5 h at room temperature, the membranes were incubated with primary antibody overnight at 4°C: Bax (1:2000), Bcl-2 (1:1000), Caspase-3 (1:500), Cytochrome c (1:500), and β-actin (1:3000). Then, the blots were washed three times for 10 min each in Tris-NaCl and incubated with secondary HRP-conjugated goat anti-mouse or anti-rabbit IgGs (1:6000 or 1:5000) for 2.5 h at 37°C. The interest proteins were visualized using ECL, and β-actin served as the internal control.
(In general: A western blot detects proteins with antibodies after separation by electrophoresis.)

Assay [10] deals with Bax, Bcl-2, cyt c, Caspase-3 in MCF-7 cells. The assay is described as follows: Western blot analysis of apoptotic proteins, MCF-7. The format is cell-based, human. To be noted: 24 h. As for the experimental part: as §7, §8, §9, §10, §11
Assay [11] relates to MCF-7 cells. The assay is described as follows: Flow cytometry cell cycle analysis (PI), MCF-7. As to conditions: MCF-7, 1b 24 h. It is filed as cell-based, human. The protocol:
as §3, §4

Where [12] appears, read: HeLa, 0.5, 1.5, 2.5 μM, vs control, dose-dependent, P<0.01.
The mark [13] stands for this setting: MCF-7, 0.5, 1.5, 2.5 μM, vs control, dose-dependent, P<0.01.

As a reminder, the IC50 is the concentration needed to halve the response being measured. Read a high IC50 as weaker potency in that assay.

The structures appear in SMILES notation.

In the case of `CCC1OC(=O)C(C)C(O)C(C)C(OC2OC(C)CC(N(C)CC=CCN(C)C3CC(C)OC(OC4C(C)C(OC5CC(C)(OC)C(O)C(C)O5)C(C)C(=O)OC(CC)C(C)(O)C(O)C(C)C(=NO)C(C)CC4(C)OC)C3O)C2O)C(C)(OC)CC(C)C(=NO)C(C)C(O)C1(C)O` (centres unmarked) [Compound 1j], the half-maximal inhibitory concentration (IC50) in [1] was more than 100 µM; in assay [2] it was 23.7 ± 2.2 µM; in assay [3], 30.6 ± 2.8 µM; in [4], 26.4 ± 2.4 µM.
As to `CCC1OC(=O)C(C)C(OC2CC(C)(OC)C(O)C(C)O2)C(C)C(OC2OC(C)CC(N(C)CC=CCN(C)C3CC(C)OC(OC4C(C)C(OC5CC(C)(OC)C(O)C(C)O5)C(C)C(=O)OC(CC)C(C)(O)C(O)C(C)C(=O)C(C)CC4(C)OC)C3O)C2O)C(C)(OC)CC(C)C(=O)C(C)C(O)C1(C)O` (centres unmarked) [Compound 1b], the “mitochondrial membrane potential (Rhodamine 123)” value in assay [5] (0.5 μM) is reported as 74.17%; in assay [5] (2.5 μM), 1.00%. Besides, the entries for the “percentage of SubG1 peaks” value in assay [6] (highest concentration (control 2.28%)) and in [11] (highest concentration (control 3.62%)) were 20.06% and 22.51%, respectively. The “percentage of G0/G1 peaks” value in assay [6] (highest concentration (control 55%)) stood at 35%; in assay [11] (highest concentration (control 61%)), 45%. The “early apoptotic cell population (lower right)” value turned out to be 54.84% in [7] and 30.30% in assay [8]. Further, the BCL-2 expression result in assay [9] (setting [12]) and in [10] (setting [13]) was “decreased” in each case. For the same compound, the Bax expression entry in assay [9] (setting [12]) and in assay [10] (setting [13]) was “significantly increased” in each case. For the same compound, the “amount of 17 kDa cleaved Caspase-3” value in [9] (HeLa, 0.5 to 2.5 μM) is reported as “increased”; in [10] (MCF-7, 0.5 to 2.5 μM) it was “increased”. The “expression of cyt c in the cytoplasm” value in [9] (HeLa, concentration increased from 0.5 to 2.5 μM) is recorded as “increased”; in assay [10] (MCF-7, concentration increased from 0.5 to 2.5 μM), “increased”.
